We go through seven molecules from patent publication US8642656B2, “Calixarene-based peptide conformation mimetics, methods of use, and methods of making” (priority 2004, dated 2014).

One series has as its system endothelial cell (EC). The series can be described thus: EC Proliferation Assay, [3H]thymidine incorporation (Example 36, Table 1). It is filed as cell-based. The note with it: read-out: EC proliferation IC50 (conc). As to the method:
Human umbilical vein derived EC(HUVEC) were harvested from normal human umbilical cords by perfusion with 0.125% trypsin/EDTA as described in Groenewegen et al., J. Exp. Med. 164, 131-143 (1986). For determination of quiescent EC phenotype isolated ECs were immediately fixed in 1% paraformaldehyde. Human microvascular ECs (MVECs) were isolated. ECs were cultured in fibronectin coated tissue culture flasks in culture medium (RPMJ-1640 with 20% human serum (HS), supplemented with 2 mM glutamine and 100 U/ml penicillin and 0.1 mg/ml streptomycin).
EC proliferation was measured using a [^3H]thymidine incorporation assay. ECs were seeded at 5000 cells/well in flatbottomed tissue culture plates and grown for 3 days, in the absence or presence of regulators, in culture medium. During the last 6 hours of the assay, the culture was pulsed with 0.5μ Ci [methyl-^3H]thymidine/well.
(In general: Incorporation of labelled thymidine or its analogues reports DNA synthesis.)

A further series has as its system E. coli J96. The series can be described thus: Bactericidal assay on J96. The note with it: for IC50: read-out: Bacterial activity on J96 IC50 (conc). Format: cell-based. The text has this:
Pseudomonas aeruginosa type 1 is a clinical, smooth strain isolate stereotyped by using the scheme of Homma et al., Japan. J. Exp. Med. 46, 329-336 (1976) and maintained in the lab by monthly transfer on blood agar plates. E. coli J96, IA2, and H5 are smooth strain, uropathogenic clinical isolates kindly maintained and provided by J. R. Johnson and described in Johnson et al., J. Infect. Disease 173, 920-926 (1996) for J96 and IA2 and in Johnson et al., J. Infect. Disease 173, 746-749 (1996) for H5. J5 is an E. coli rough strain initially referenced by G. R. Siber and discussed in Warren et al., Infect. Immunity 55, 1668-1673 (1987) and is analogous to the smooth strain E. coli 0111:B4 used in the BioWhittaker LAL endotoxin detection and quantitation kit described below. Gram-positive MN8 and MNHO are two patient isolates of Staphylococcus aureus, which were kindly provided by P. M. Schlievert and described in Bohach et al., Rev. Infect. Diseases 11, 75-82 (1989) for MNHO and in Schlievert et al., J. Infect. Diseases 147, 236-242 (1983) for MN8. All cultures are maintained on nutrient agar plates.
Pyrogen-free solutions were used throughout the assay. Log phase bacteria were obtained by transferring an overnight culture or scraping crystals off-85° C glycerol stocks of overnight cultures. Bacteria were washed and resuspended in 0.9% sodium chloride with adjustment to an optical density at 650 nm which yields 3×10^8 CFU/ml. Bacteria were then diluted 1:10 in 0.08 M citrate phosphate buffer, pH 7.0 (prepared by mixing 0.08 M citric acid with 0.08 M dibasic sodium phosphate). Bacteria (0.15 ml) were incubated with the test compound in a final volume of 1.0 ml of buffer. The assay was done in 17×100 polypropylene tubes in a reciprocal water bath shaker at 37° C for 30 minutes. Following this 30 minute (min) incubation. 10-fold dilutions were made in 0.9% sodium chloride. Dilutions were done to 10^−4 and 20 μl of each dilution was streaked across an agar plate. Gram-positive organisms were plated on nutrient agar plates containing 2% agar and Gram-negative organisms were plated on MacConkey agar (2%). Plates were incubated overnight at 37° C and counted the next morning. The dilution containing 10-100 bacteria was counted and the number multiplied by 50 to adjust all counts to the number bacteria killed per milliliter. Compound concentrations were converted to logarithm base ten and graphed. Bactericidal activity was determined by dose response where LD50 values were determined by best fits of a sigmoidal curve to the dose response data.

The next series can be described thus: Solubility (Table 1). It is filed as physicochemical. The note with it: footnotes: 3 mM in 100% DMSO or ethanol → 0.03 mM in H2O.
In series [1] the test system is LPS from E. coli serotype 0111:B4. The series can be described thus: LPS neutralization assay (Limulus amoebocyte lysate, QCL-1000). Format: biochemical. The note with it: read-out: IC50 values (μM) for LPS binding, E. coli 0111:B4. The text has this: (§1) The ability of compounds to neutralize endotoxin was detected in vitro by using the chromogenic QCL-1000 kit from BioWhittaker, Inc. (Walkersville, Md.), and as described in their protocol. This Limulus amoebocyte lysate (LAL) assay is quantitative for Gram negative bacterial endotoxin (lipopolysaccharide, LPS). In this assay compounds that are active inhibit the LPS-mediated activation of a proenzyme whose active form would release p-nitroaniline (pNA) from a colorless synthetic substrate producing a yellow color (pNA) whose absorption is monitored spectrophotometrically at 405-410 nm. The initial rate of enzyme activation is proportional to the concentration of endotoxin present.
(§2) Variants of LPS from six Gram negative bacteria were used: E. coli serotypes 0111:B4 (Combrex, Walkersville, Md.) and 055:B5 (Sigma, St. Louis, Mo.); Klebsiella pneumoniae (List Biologies, San Jose, Calif.); Pseudomonas aeruginosa (List Biologies, San Jose, Calif.); Salmonella typhimurium (List Biologies, San Jose, Calif.), and Serratia marcascens (List Biologies, San Jose, Calif.). The concentration of compound required to neutralize a given LPS and therefore to inhibit the Limulus amoebocyte lysate driven by 0.04 units of any given LPS was determined by dose response curves fit by using a standard sigmoidal function to determined the JC50 value for each lopomimetic compound. The 0.04 units corresponds to 0.01 ng LPS from E. coli serotype 055:B5, 0.01 ng LPS from E. coli serotype 0111:B4, 0.003 ng LPS from K. pneumoniae, 0.01 ng LPS from P. aeruginosa, 0.03 ng LPS from S. typhimurium, and 0.03 ng LPS from S. marcascens.

Series [2] relates to LPS from E. coli serotype 055:B5. Described as above. It is filed as biochemical.
Description: as §1, §2

A further series concerns LPS from P. aeruginosa. The series is described as above. Format: biochemical, Pseudomonas aeruginosa. The note with it: read-out: IC50 values (μM) for LPS binding, P.a.
Description: as §1, §2

The test system of the next series is LPS from K. pneumoniae. Described as above. Format: biochemical, Klebsiella pneumoniae. The note with it: read-out: IC50 values (μM) for LPS binding, Klebsiella.
Description: as §1, §2

The test system of a further series is LPS from S. typhimurium. The description is as above. Format: biochemical, Salmonella typhimurium. The note with it: read-out: IC50 values (μM) for LPS binding, Salmonella.
Description: as §1, §2

For the next series, the system named is LPS from S. marcascens. Described as above. The note with it: read-out: IC50 values (μM) for LPS binding, Serratia. Format: biochemical, Serratia marcascens.
Description: as §1, §2

For series [3], the system named is LPS from six species of bacteria. The series can be described thus: LPS neutralization assay, overall statements. It is filed as biochemical. The note with it: library of 23 compounds.
Description: as §1
as §2, with “The 0.04 units corresponds to 0.01 ng LPS from E. coli serotype 055:B5, 0.01 ng LPS from E. coli serotype 0111:B4, 0.003 ng LPS from K. pneumoniae, 0.01 ng LPS from P. aeruginosa, 0.03 ng LPS from S. typhimurium, and 0.03 ng LPS from S. marcascens.” left out

In series [4] the test system is EC. The series can be described thus: EC % apoptosis (Table 1). It is filed as cell-based, human.
In series [5] the test system is EC. The series can be described thus: EC % total cell death (Table 1). It is filed as cell-based, human.
In the next series the test system is Fibro. The series can be described thus: Other cells, Fibro (Table 1). It is filed as cell-based.
The next series in a line: Hemolysis (Table 1). The note with it: at 10^−6 M. Format: cell-based.
Where [6] appears, read: Table 2, read-out: IC50 values (μM) for LPS binding, E. coli 055:B4.
Where [7] appears, read: Table 3, errors estimated ±30%, read-out: IC50 values (μM) for LPS binding, E. coli 055:B5.

Entries after “also recorded” stand apart in the source; their conditions may differ. Like-named read-outs stand apart in the source and are kept apart here.

Take `CC(C)(C)c1cc2c(O)c(c1)Cc1cc(C(C)(C)C)cc(c1OCCNC(=N)N)Cc1cc(C(C)(C)C)cc(c1O)Cc1cc(C(C)(C)C)cc(c1OCCN)C2.O=C(O)C(F)(F)F`: the figures for the IC50 with endothelial cell (EC) and with E. coli J96 were greater than 25000 nM and 2500 nM, respectively. Besides, the “Solubility (solvent, in words)” value in the series “Solubility (Table 1)” is recorded as “DMSO/H2O”.
As for `CC(C)(C)c1cc2c(O)c(c1)Cc1cc(C(C)(C)C)cc(c1OCCCCNC(=N)N)Cc1cc(C(C)(C)C)cc(c1OCCCCNC(=N)N)Cc1cc(C(C)(C)C)cc(c1OCCCCNC(=N)N)C2`, the figures for the IC50 in the series with endothelial cell (EC) and in the series with E. coli J96 were greater than 25000 nM and 1300 nM, respectively. Also, in “Solubility (Table 1)”, the “Solubility (solvent, in words)” value was “DMSO/H2O”.
On to `CC(C)CCOc1c2cc(CCC(=O)NCCN(C)C)cc1Cc1cc(CCC(=O)NCCN(C)C)cc(c1OCCC(C)C)Cc1cc(CCC(=O)NCCN(C)C)cc(c1OCCC(C)C)Cc1cc(CCC(=O)NCCN(C)C)cc(c1OCCC(C)C)C2`, for which the IC50 with endothelial cell (EC) is greater than 25000 nM; with E. coli J96 it was 1200 nM. Moreover, in the series “Solubility (Table 1)”, the “Solubility (solvent, in words)” value is given as “DMSO/H2O”.
Turning to `CN(C)CCNC(=O)COc1c2cc(C(C)(C)C)cc1Cc1cc(C(C)(C)C)cc(c1OCC(=O)NCCN(C)C)Cc1cc(C(C)(C)C)cc(c1OCC(=O)NCCN(C)C)Cc1cc(C(C)(C)C)cc(c1OCC(=O)NCCN(C)C)C2` [Compound 3], the “bactericidal activity (in words)” value with E. coli J96 (in the micromolar range (Table 1)) was “reasonably good bactericidal activity”. Moreover, the IC50 is greater than 5 µM in series [1] (Table 2); greater than 5 µM in [1] (Table 3, errors estimated ±30%); 4.4 µM in [2] (setting [6]); greater than 5 µM in [2] (setting [7]); greater than 5 µM in the series with LPS from P. aeruginosa (Table 2); greater than 5 µM in the series on LPS from P. aeruginosa (Table 3, errors estimated ±30%). Further, the IC50 in the series on LPS from K. pneumoniae (Table 2) is 0.08 µM; in the series with LPS from K. pneumoniae (Table 3, errors estimated ±30%), greater than 5 µM; in the series on LPS from S. typhimurium (Table 2) it was 4.1 µM; with LPS from S. typhimurium (Table 3, errors estimated ±30%), greater than 5 µM; in the series with LPS from S. marcascens (Table 2), greater than 5 µM; in the series with LPS from S. marcascens (Table 3, errors estimated ±30%), greater than 5 µM.
In the case of `CC(C)(C)c1cc2c(OCCCCN)c(c1)Cc1cc(C(C)(C)C)cc(c1OCCCCNC(=N)N)Cc1cc(C(C)(C)C)cc(c1OCCCCNC(=N)N)Cc1cc(C(C)(C)C)cc(c1OCCCCNC(=N)N)C2.O=C(O)C(F)(F)F` [Compound 43, 5,11,17,23-Tetra-tert-butyl-25,26,27-tris(4-guanidinobutyroxy)-28-(4-aminobutyroxy) calix[4]arene trifloroacetic acid salt], the IC50 was 0.4 µM in series [1] (Table 2); 0.4 µM in series [1] (Table 3, errors estimated ±30%); 0.1 µM in series [2] (setting [6]); 0.1 µM in series [2] (setting [7]); 0.8 µM in the series with LPS from P. aeruginosa (Table 2); 0.8 µM in the series with LPS from P. aeruginosa (Table 3, errors estimated ±30%). Further, the IC50 with LPS from K. pneumoniae (Table 2) was 0.5 µM; in the series on LPS from K. pneumoniae (Table 3, errors estimated ±30%), 0.5 µM; with LPS from S. typhimurium (Table 2), 0.6 µM; in the series with LPS from S. typhimurium (Table 3, errors estimated ±30%), 0.6 µM; in the series on LPS from S. marcascens (Table 2), 3.2 µM; with LPS from S. marcascens (Table 3, errors estimated ±30%), 3.2 µM. Also, the “neutralizing LPS, ranking in words” value in series [3] is on record as “best LPS neutralizing compounds; also recorded: most effective for neutralizing LPS”.
`CN(C)CCNC(=O)COc1c2cc(C(C)(C)C)cc1Cc1cc(C(C)(C)C)cc(c1OCC(=O)NCCN(C)C)Cc1cc(C(C)(C)C)cc(c1OCC(=O)NCCN(C)C)Cc1cc(C(C)(C)C)cc(c1OCC(=O)NCCN(C)C)C2` [drawing 10]: the results for the IC50 in the series on endothelial cell (EC) and in the series with E. coli J96 were greater than 25000 nM and 1300 nM, respectively. Also, in the series on EC [4], the “EC % Apoptosis 25 μM” value is “No effect”. Moreover, the “EC % total cell death” value with EC [5] is “No effect”. In addition, the “Other cells 25 μM, Fibro” value in the series with Fibro is recorded as 100%. Besides, the Hemolysis in “Hemolysis (Table 1)” worked out at 100% at 10^−6 M. In addition, in the series “Solubility (Table 1)”, the “Solubility (solvent, in words)” value was “DMSO/H2O”.
With `CC(C)(C)c1cc2c(OCC(=O)NCCN)c(c1)Cc1cc(C(C)(C)C)cc(c1OCC(=O)NCCN)Cc1cc(C(C)(C)C)cc(c1OCC(=O)NCCN)Cc1cc(C(C)(C)C)cc(c1OCC(=O)NCCN)C2` [drawing 14], the figures for the IC50 in the series on endothelial cell (EC) and in the series on E. coli J96 were greater than 25000 nM and greater than 3800 nM, respectively. Moreover, in “Solubility (Table 1)”, the “Solubility (solvent, in words)” value is “DMSO/H2O”.
